Columns and labels:
[1] = system: HCV subgenomic replicon in MH-14 cells; assay: Immunoblot analysis of HCV NS5A and NS5B proteins in MH-14 HCV replicon cells; format: cell-based, Hepatitis C virus (HCV); details: 7 days
Protocol: (§1) Cell culture: Huh-7 and MH-14 cells, HCV replicon cells, are cultured in Dulbecco's modified Eagle's medium (DMEM) with 10% fetal bovine serum (FBS). PH5CH8 cells are cultured in a 1:1 mixture of DMEM and F12 medium supplemented with 100 ng/ml of epidermal growth factor, 10 μu/ml of insulin, 0.36 μg/ml of hydrocortisone, 5 μg/ml of transferrin, 5 μg/ml of linoleic acid, 20 ng/ml of selenium, 4 μg/ml of glucagon, 10 ng/ml of prolactin, 10 μg/ml of gentamicin, 200 μg/ml of kanamycin, and 2% FBS.
Immunoblot analysis: Immunoblot analysis is performed as described by K. Watashi et al., Virology 2001, 286, 391-402. The primary antibodies used in this experiment are anti-NS5A, anti-NS5B, and anti-β-actin (Sigma) antibodies.
The effect of various cyclosporins of the invention on the replication of the HCV genome using MH-14 cells, in which the HCV subgenomic replicon as shown in FIG. 1A is autonomously replicated.

[2] = system: HCV in PH5CH8 cells (non-neoplastic hepatocyte cell line); assay: In vitro HCV infection experiment in PH5CH8 cells, real time RT-PCR; format: cell-based, Hepatitis C virus (HCV); details: PH5CH8 cells treated with HCV-positive plasma, continuous treatment; untreated cells about 10-fold increase
Protocol: as §1
(§2) The forward and reverse primers used in this experiment are 5′-[…]-3′ and 5′-[…]-3′, respectively. The fluorogenic probe is 5′-[…]-3′. As an internal control, ribosomal RNA is also quantified using TaqMan Ribosomal RNA Control Reagents (Applied Biosystems).

[3] = system: HCV subgenomic replicon in MH-14 cells; assay: Northern blot analysis of replicon RNA in MH-14 cells; format: cell-based, Hepatitis C virus (HCV); details: 1 μg/ml, 7 days
Protocol: as §1
Northern Blot Analysis: Nothern blot analysis is performed as described by H. Kishine et al., Biochem. Biophys. Res. Commun., 2002, 47, 119-125. The probe complementary to the NS5B sequence used in this experiment is described by H. Kishine, supra.
(§3) Replicon RNA is analyzed in MH-14 cells treated with or without a cyclosporin of the invention or IFNα for 7 days by northern blot analysis.

[4] = system: HCV subgenomic replicon in MH-14 cells; details: 7th day of treatment
Protocol: as §1, §2, §3

Substance	amount of HCV NS5A and NS5B proteins by immunoblot analysis ([1]; 100 U/ml, positive control)	increase of HCV RNA genome titer, 5th day vs 1st day post-inoculation [2]	amount of HCV NS5A and NS5B proteins by immunoblot analysis ([1]; 1 μg/ml)	amount of replicon RNA by northern blot [3]	level of HCV RNA relative to the original [4]
IFNα	undetectable	significant increase of the HCV RNA genome titer at these time points was not observed	–	–	–
[MeIle]^4-Ciclosporin	–	significant increase of the HCV RNA genome titer at these time points was not observed	undetectable	undetectable	about 1/400
